Laboratory results from PubChem BioAssay AID330 (DTP/NCI, 2004).
Values joined by “and” are separate entries in the source; they are usually repeats but may differ in a detail not shown here. Equal values may be shown once. Toxic doses and inconclusive results are not listed. Numbered stars: 1 amine (or outer) side, 2 acyl side, 3 side chain; on linkers, the order of the positions; unused ones are H or OH. Bridge positions count the residues as written; N and C are the ends. Square brackets hold non-standard residues; d marks the D form. Peptide text beside a SMILES is read from it. I, II: the chains in the order shown. Actinocin(9to1) = Cc1c2oc3c(C)ccc(C(=O)[*:1])c3nc-2c(C(=O)[*:2])c(N)c1=O; aThr = C[C@H](O)[C@H](N)C(=O)O; NMeV = CN[C@H](C(=O)O)C(C)C; Sar = CNCC(=O)O

System: P388 leukemia ip, CD2F1 mice, survival T/C
Assay: NCI In Vivo Anticancer Drug Screen. Data for tumor model P388 Leukemia (intraperitoneal) in CD2F1 (CDF1) mice
Conditions: endpoint: median survival time, higher = longer survival
Procedure, shortened: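 Mice carrying the transplanted tumor received test compound or vehicle. Survival was recorded in each group, and the value is the treated-group measurement divided by that of the vehicle-treated control group.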

[1] = dose: 25.0 mg/kg/injection, schedule: Q01DX005 (ip), vehicle: Klucel (hydroxypropylcellulose) (HPC)
[2] = dose: 50.0 mg/kg/injection, schedule: Q01DX005 (ip), vehicle: Klucel (hydroxypropylcellulose) (HPC)
[3] = dose: 200.0 mg/kg/injection, schedule: Q01DX005 (ip), vehicle: Klucel (hydroxypropylcellulose) (HPC)

## Cc1c2oc3c(C)ccc(C(=O)N[C@@H]4C(=O)N[C@H](C(C)C)C(=O)N5CCC[C@H]5C(=O)N(C)CC(=O)N(C)[C@@H](C(C)C)C(=O)O[C@H]4C)c3nc-2c(C(=O)N[C@@H]2C(=O)N[C@H](C(C)C)C(=O)N3CCC[C@H]3C(=O)N(C)CC(=O)N(C)[C@@H](C(C)C)C(=O)O[C@H]2C)c(N)c1=O (I: [aThr][dV]P[Sar][NMeV] / II: [aThr][dV]P[Sar][NMeV]; ester I:1-I:C, II:1-II:C; linker I:N-II:N via Actinocin(9to1))
dose: 0.05 mg/kg/injection, schedule: Q01DX005 (ip), vehicle: saline + alcohol
  T/C: 236 % of control
dose: 0.08 mg/kg/injection, schedule: Q04DX003 (ip), vehicle: saline + alcohol
  T/C: 165 % of control
dose: 0.09 mg/kg/injection, schedule: Q01DX009 (ip), vehicle: water
  T/C: 79 % of control
dose: 0.1 mg/kg/injection, schedule: Q01DX001 (ip), vehicle: water
  T/C: 181 % of control
dose: 0.11 mg/kg/injection, schedule: Q04DX003 (ip), vehicle: saline + alcohol
  T/C: 151 % of control
dose: 0.13 mg/kg/injection, schedule: Q04DX002 (ip), vehicle: saline + alcohol
  T/C: 156 % of control and 180 % of control and 198 % of control
dose: 0.13 mg/kg/injection, schedule: Q04DX003 (ip), vehicle: saline + alcohol
  T/C: 223 % of control
dose: 0.15 mg/kg/injection, schedule: Q04DX003 (ip), vehicle: saline
  T/C: 169 % of control
dose: 0.16 mg/kg/injection, schedule: Q01DX009 (ip), vehicle: water
  T/C: 65 % of control
dose: 0.18 mg/kg/injection, schedule: Q04DX003 (ip), vehicle: saline + alcohol
  T/C: 163 % of control
dose: 0.21 mg/kg/injection, schedule: Q04DX002 (ip), vehicle: saline + alcohol
  T/C: 186 % of control
dose: 0.22 mg/kg/injection, schedule: Q04DX002 (ip), vehicle: saline + alcohol
  T/C: 162 % of control and 215 % of control
dose: 0.22 mg/kg/injection, schedule: Q04DX003 (ip), vehicle: saline + alcohol
  T/C: 247 % of control
dose: 0.3 mg/kg/injection, schedule: Q01DX001 (ip), vehicle: saline
  T/C: 153 % of control
dose: 0.3 mg/kg/injection, schedule: Q04DX003 (ip), vehicle: saline + alcohol
  T/C: 182 % of control
dose: 0.3 mg/kg/injection, schedule: Q04DX003 (ip), vehicle: saline
  T/C: 175 % of control
dose: 0.36 mg/kg/injection, schedule: Q04DX002 (ip), vehicle: saline + alcohol
  T/C: 118 % of control and 176 % of control and 212 % of control
dose: 0.36 mg/kg/injection, schedule: Q04DX003 (ip), vehicle: saline + alcohol
  T/C: 99 % of control
dose: 0.45 mg/kg/injection, schedule: Q01DX001 (ip), vehicle: saline
  T/C: 164 % of control
dose: 0.5 mg/kg/injection, schedule: Q04DX003 (ip), vehicle: saline + alcohol
  T/C: 220 % of control
dose: 0.6 mg/kg/injection, schedule: Q01DX001 (ip), vehicle: saline
  T/C: 169 % of control
dose: 0.6 mg/kg/injection, schedule: Q04DX002 (ip), vehicle: saline + alcohol
  T/C: 101 % of control and 207 % of control and 254 % of control
dose: 0.6 mg/kg/injection, schedule: Q04DX003 (ip), vehicle: saline
  T/C: 86 % of control
dose: 0.8 mg/kg/injection, schedule: Q01DX001 (ip), vehicle: water
  T/C: 183 % of control
dose: 1.0 mg/kg/injection, schedule: Q04DX002 (ip), vehicle: saline + alcohol
  T/C: 260 % of control and 274 % of control
dose: 1.2 mg/kg/injection, schedule: Q01DX001 (ip), vehicle: water
  T/C: 55 % of control
dose: 3.0 micrograms/kg/injection, schedule: Q01DX009 (ip), vehicle: water
  T/C: 150 % of control and 160 % of control and 175 % of control
dose: 6.0 micrograms/kg/injection, schedule: Q01DX009 (ip), vehicle: water
  T/C: 164 % of control and 170 % of control and 188 % of control
dose: 6.25 micrograms/kg/injection, schedule: Q01DX005 (ip), vehicle: saline + alcohol
  T/C: 207 % of control
dose: 6.25 micrograms/kg/injection, schedule: Q01DX009 (ip), vehicle: saline
  T/C: 150 % of control
dose: 6.5 micrograms/kg/injection, schedule: Q01DX009 (ip), vehicle: saline + alcohol
  T/C: 155 % of control
dose: 10.8 micrograms/kg/injection, schedule: Q01DX009 (ip), vehicle: saline + alcohol
  T/C: 160 % of control
dose: 12.5 micrograms/kg/injection, schedule: Q01DX005 (ip), vehicle: saline + alcohol
  T/C: 207 % of control
dose: 18.0 micrograms/kg/injection, schedule: Q01DX009 (ip), vehicle: saline + alcohol
  T/C: 163 % of control
dose: 25.0 micrograms/kg/injection, schedule: Q01DX005 (ip), vehicle: saline + alcohol
  T/C: 245 % of control
dose: 30.0 micrograms/kg/injection, schedule: Q01DX009 (ip), vehicle: saline + alcohol
  T/C: 184 % of control
dose: 50.0 micrograms/kg/injection, schedule: Q01DX005 (ip), vehicle: saline + alcohol
  T/C: 176 % of control and 267 % of control
dose: 64.8 micrograms/kg/injection, schedule: Q04DX003 (ip), vehicle: saline + alcohol
  T/C: 156 % of control
dose: 77.8 micrograms/kg/injection, schedule: Q04DX003 (ip), vehicle: saline + alcohol
  T/C: 174 % of control
dose: 83.3 micrograms/kg/injection, schedule: Q01DX009 (ip), vehicle: saline + alcohol
  T/C: 98 % of control
dose: 100.0 micrograms/kg/injection, schedule: Q01DX005 (ip), vehicle: saline + alcohol
  T/C: 178 % of control
dose: 130.0 micrograms/kg/injection, schedule: Q04DX003 (ip), vehicle: saline + alcohol
  T/C: 175 % of control
dose: 139.0 micrograms/kg/injection, schedule: Q01DX009 (ip), vehicle: saline + alcohol
  T/C: 96 % of control
dose: 180.0 micrograms/kg/injection, schedule: Q04DX003 (ip), vehicle: saline + alcohol
  T/C: 190 % of control
dose: 216.0 micrograms/kg/injection, schedule: Q04DX003 (ip), vehicle: saline + alcohol
  T/C: 192 % of control
dose: 300.0 micrograms/kg/injection, schedule: Q04DX003 (ip), vehicle: saline + alcohol
  T/C: 162 % of control and 175 % of control
dose: 360.0 micrograms/kg/injection, schedule: Q04DX003 (ip), vehicle: saline + alcohol
  T/C: 197 % of control
dose: 500.0 micrograms/kg/injection, schedule: Q04DX003 (ip), vehicle: saline + alcohol
  T/C: 113 % of control and 219 % of control
dose: 600.0 micrograms/kg/injection, schedule: Q04DX003 (ip), vehicle: saline + alcohol
  T/C: 101 % of control

## CCCCc1ccc2nc(C)cc(N/N=C/c3ccc(OC)c4ccccc34)c2c1
dose: 12.5 mg/kg/injection, schedule: Q01DX005 (ip), vehicle: Klucel (hydroxypropylcellulose) (HPC)
  T/C: 100 % of control
[1]
  T/C: 98 % of control
[2]
  T/C: 87 % of control
[3]
  T/C: 100 % of control

## Cn1nc(C(=O)O)c(=O)[nH]c1=O
dose: 50.0 mg/kg/injection, schedule: Q01DX005 (ip), vehicle: saline
  T/C: 98 % of control
dose: 100.0 mg/kg/injection, schedule: Q01DX005 (ip), vehicle: saline
  T/C: 95 % of control
dose: 200.0 mg/kg/injection, schedule: Q01DX005 (ip), vehicle: saline
  T/C: 98 % of control

## Cc1onc(-c2c(F)cccc2Cl)c1C(=O)OCc1c(F)cccc1Cl
dose: 60.0 mg/kg/injection, schedule: Q01DX005 (ip), vehicle: saline with Tween-80
  T/C: 99 % of control
dose: 120.0 mg/kg/injection, schedule: Q01DX005 (ip), vehicle: saline with Tween-80
  T/C: 97 % of control
dose: 240.0 mg/kg/injection, schedule: Q01DX005 (ip), vehicle: saline with Tween-80
  T/C: 97 % of control

## COC(=O)C[n+]1ccc2ccccc2c1
dose: 50.0 mg/kg/injection, schedule: Q01DX009 (ip), vehicle: saline
  T/C: 99 % of control
dose: 100.0 mg/kg/injection, schedule: Q01DX009 (ip), vehicle: saline
  T/C: 99 % of control
dose: 200.0 mg/kg/injection, schedule: Q01DX009 (ip), vehicle: saline
  T/C: 95 % of control

## CCNC(=O)/C=C(C)/C=C/C=C(C)/C=C/c1c(C)cc(OC)c(C)c1C
[1]
  T/C: 86 % of control
[2]
  T/C: 90 % of control
dose: 100.0 mg/kg/injection, schedule: Q01DX005 (ip), vehicle: Klucel (hydroxypropylcellulose) (HPC)
  T/C: 100 % of control and 101 % of control
[3]
  T/C: 108 % of control

## CN=C(N)N/N=C(\c1ccccc1)c1ccc(Cl)cc1
dose: 6.25 mg/kg/injection, schedule: Q04DX002 (ip), vehicle: saline with Tween-80
  T/C: 102 % of control
dose: 12.5 mg/kg/injection, schedule: Q04DX002 (ip), vehicle: saline with Tween-80
  T/C: 109 % of control
dose: 25.0 mg/kg/injection, schedule: Q04DX002 (ip), vehicle: saline with Tween-80
  T/C: 153 % of control

## O=NN(C(=O)NC1CCC(C(=O)O)CC1)C1CCC(C(=O)O)CC1 (configuration not stated)
dose: 25.0 mg/kg/injection, schedule: Q01DX001 (ip), vehicle: distilled water + Tween-80
  T/C: 93 % of control
dose: 50.0 mg/kg/injection, schedule: Q01DX001 (ip), vehicle: distilled water + Tween-80
  T/C: 93 % of control
dose: 100.0 mg/kg/injection, schedule: Q01DX001 (ip), vehicle: distilled water + Tween-80
  T/C: 93 % of control
dose: 200.0 mg/kg/injection, schedule: Q01DX001 (ip), vehicle: distilled water + Tween-80
  T/C: 101 % of control

## O=C1c2ccccc2C(=O)c2cscc21
dose: 12.5 mg/kg/injection, schedule: Q01DX009 (ip), vehicle: saline with Tween-80
  T/C: 100 % of control
dose: 25.0 mg/kg/injection, schedule: Q01DX009 (ip), vehicle: saline with Tween-80
  T/C: 97 % of control
dose: 50.0 mg/kg/injection, schedule: Q01DX009 (ip), vehicle: saline with Tween-80
  T/C: 97 % of control
dose: 100.0 mg/kg/injection, schedule: Q01DX009 (ip), vehicle: saline with Tween-80
  T/C: 98 % of control
